The target of this test is T1, Androgen Receptor (Homo sapiens, UniProt P10275).
T1 construct: endogenous in cells; host or cells: VCaP cells
T1 sequence (P10275 1-920): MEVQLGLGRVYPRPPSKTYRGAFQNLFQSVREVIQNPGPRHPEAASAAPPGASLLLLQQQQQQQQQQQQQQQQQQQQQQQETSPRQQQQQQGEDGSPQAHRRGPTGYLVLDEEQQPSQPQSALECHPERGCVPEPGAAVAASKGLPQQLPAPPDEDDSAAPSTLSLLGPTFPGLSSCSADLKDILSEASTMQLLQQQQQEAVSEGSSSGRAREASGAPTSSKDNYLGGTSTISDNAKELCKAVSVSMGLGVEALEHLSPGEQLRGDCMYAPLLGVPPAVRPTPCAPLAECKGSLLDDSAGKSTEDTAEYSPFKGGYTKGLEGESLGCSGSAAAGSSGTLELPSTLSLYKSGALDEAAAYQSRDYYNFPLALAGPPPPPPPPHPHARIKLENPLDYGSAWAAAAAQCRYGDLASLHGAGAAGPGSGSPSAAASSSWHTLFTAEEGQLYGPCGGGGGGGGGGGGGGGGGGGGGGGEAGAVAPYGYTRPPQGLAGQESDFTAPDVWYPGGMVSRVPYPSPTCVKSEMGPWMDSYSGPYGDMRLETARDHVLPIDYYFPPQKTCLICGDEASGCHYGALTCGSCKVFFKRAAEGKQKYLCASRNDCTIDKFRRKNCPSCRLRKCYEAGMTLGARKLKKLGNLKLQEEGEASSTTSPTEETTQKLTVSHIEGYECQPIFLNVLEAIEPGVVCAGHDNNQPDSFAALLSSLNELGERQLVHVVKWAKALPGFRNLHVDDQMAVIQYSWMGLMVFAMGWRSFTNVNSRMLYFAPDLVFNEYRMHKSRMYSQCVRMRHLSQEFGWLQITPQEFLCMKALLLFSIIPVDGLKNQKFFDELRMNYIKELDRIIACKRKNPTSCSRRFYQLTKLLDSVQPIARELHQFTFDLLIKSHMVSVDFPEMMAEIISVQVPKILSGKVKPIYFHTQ
Kind of test: Androgen Receptor ELISA assay (PathScan AR ELISA) in VCaP cells: AR degradation, Dmax and DC50. It is filed as cell-based. Conditions: Table 36; for DC50: read-out: VCaP DC50; for Dmax: VCaP. Put shortly: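 VCaP cells in phenol red-free RPMI with 5% charcoal-stripped FBS were grown at least 3 days, then given compound as 7 half-log doses in 0.1% DMSO with 0.1 nM R1881 for 24 h. Lysates went into a sandwich AR ELISA with TMB read at 450 nm.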

Where [1] appears, read: read-out: VCaP Dmax (%), VCaP cells.
The mark [2] stands for this setting: VCaP cells, read-out: VCaP Dmax (%).

SMILES strings stand for the structures. Where two headings read alike, the source gives them in different places. A value given as a limit tells only on which side of the number the result lay.

Usually DC50 stands for the concentration at which degradation of the target reaches its halfway point. The term Dmax denotes the greatest extent of degradation seen. For `Cc1ncsc1-c1ccc([C@H](C)NC(=O)[C@@H]2C[C@H](F)CN2C(=O)[C@@H](NC(=O)COCCN2CCN(c3ccc(C(=O)N[C@H]4C(C)(C)[C@H](Oc5ccc(C#N)c(Cl)c5)C4(C)C)cn3)CC2)C(C)(C)C)cc1` [Example 721, N-((1r,3r)-3-(3-chloro-4-cyanophenoxy)-2,2,4,4-tetramethylcyclobutyl)-6-(4-(2-(2-(((S)-1-((2S,4S)-4-fluoro-2-(((S)-1-(4-(4-methylthiazol-5-yl)phenyl)ethyl)carbam-oyl)pyrrolidin-1-yl)-3,3-dimethyl-1-oxobutan-2-yl)amino)-2-oxoethoxy)ethyl)pipera-zin-1-yl)nicotinamide], the DC50 (VCaP cells) was > 501 nM. Also, the Dmax under setting [1] is < 25%.
As to `CC(C)C[C@H](OCCN1CCN(c2ccc(C(=O)N[C@H]3C(C)(C)[C@H](Oc4ccc(C#N)c(Cl)c4)C3(C)C)cn2)CC1)C(=O)N[C@@H](C)C(=O)N1C[C@H](O)C[C@H]1C(=O)NCc1ccc(Cl)cc1` [Example 722, N-((1r,3r)-3-(3-chloro-4-cyanophenoxy)-2,2,4,4-tetramethylcyclobutyl)-6-(4-(2-(((S)-1-(((S)-1-((2S,4R)-2-((4-chlorobenzyl)carbamoyl)-4-hydroxypyrrolidin-1-yl)-1-oxopropan-2-yl)amino)-4-methyl-1-oxopentan-2-yl)oxy)ethyl)piperazin-1-yl)nicotinamide], the DC50 (VCaP cells) is > 501 nM. Besides, under setting [1], the Dmax is < 25%.
Turning to `Cc1ncsc1-c1ccc([C@H](C)NC(=O)C2C[C@@H](O)CN2C(=O)C(NC(=O)CN2CCN(CCCCc3ccc(C(=O)N[C@H]4C(C)(C)[C@H](Oc5ccc(C#N)c(C(F)(F)F)c5)C4(C)C)cc3)CC2)C(C)(C)C)cc1` (stereo partly drawn) [Example 723, (2S,4R)-1-((S)-2-(2-(4-(4-(4-(((1r,3r)-3-(4-cyano-3-(trifluoromethyl)phenoxy)-2,2,4,4-tetramethylcyclobutyl)carbamoyl)phenyl)butyl)piperazin-1-yl)actamido)-3,3-dimethylbutanoyl)-4-hydroxy-N-((S)-1-(4-(4-methylthiazol-5-yl)phenyl)ethyl)pyrrolidine-2-carboxamide], under “VCaP cells”, the 50% degradation concentration (DC50) was < 50 nM. Also, the Dmax under setting [2] was > 71%.
Turning to `Cc1ncsc1-c1ccc([C@H](C)NC(=O)[C@@H]2CCCN2C(=O)[C@@H](NC(=O)CN2CCN(CCCc3ccc(C(=O)N[C@H]4C(C)(C)[C@H](Oc5ccc(C#N)c(C(F)(F)F)c5)C4(C)C)cc3)CC2)C(C)(C)C)cc1` [Example 724, (S)-1-((S)-2-(2-(4-(3-(4-(((1r,3r)-3-(4-cyano-3-(trifluoromethyl)phenoxy)-2,2,4,4-tetramethylcyclobutyl)carbamoyl)phenyl)propyl)piperazin-1-yl)acetamido)-3,3-dimethylbutanoyl)-N-((S)-1-(4-(4-methylthiazol-5-yl)phenyl)ethyl)pyrrolidine-2-carboxamide], where the note is “VCaP cells”, the DC50 was > 501 nM. The Dmax under setting [2] was < 25%.
On to `Cc1ncsc1-c1ccc([C@H](C)NC(=O)[C@@H]2CC(F)(F)CN2C(=O)[C@@H](NC(=O)COCCN2CCN(c3ccc(C(=O)N[C@H]4C(C)(C)[C@H](Oc5ccc(C#N)c(Cl)c5)C4(C)C)cn3)CC2)C(C)(C)C)cc1` [Example 725, N-((1r,3r)-3-(3-chloro-4-cyanophenoxy)-2,2,4,4-tetramethylcyclobutyl)-6-(4-(2-(2-(((S)-1-((S)-4,4-difluoro-2-(((S)-1-(4-(4-methylthiazol-5-yl)phenyl)ethyl)carbam-oyl)pyrrolidin-1-yl)-3,3-dimethyl-1-oxobutan-2-yl)amino)-2-oxoethoxy)ethyl)pipera-zin-1-yl)nicotinamide], for which the DC50 (VCaP cells) was > 501 nM. Also, the Dmax under setting [2] was < 25%.

The record behind these values is patent US11427548B2 (Arvinas Operations, Inc., priority 2015, dated 2022).
